Data set [1] deals with Candida albicans. The data set can be described thus: Antifungal activity against Candida albicans ATCC 90028 by CLSI method. In kind it is functional, organism-based.
Data set [2] deals with Aspergillus fumigatus. The data set can be described thus: Antifungal activity against Aspergillus fumigatus ATCC 204305 by CLSI method. In kind it is functional, organism-based.
Data set [3] concerns Leishmania donovani. Briefly: Antileishmanial activity against axenic amastigote of Leishmania donovani after 72 hrs by alamar blue assay. The note with it: for IC50: read-out: IC50. It counts as functional, organism-based. A general note: The colour change of resazurin is a common sign of viable cells or microbes.
In data set [4] the test system is Mycobacterium intracellulare. The data set can be described thus: Antibacterial activity against Mycobacterium intracellulare ATCC 23068 by alamar blue assay. It counts as functional, organism-based.
The subject of data set [5] is Cryptococcus neoformans. The data set can be described thus: Antifungal activity against Cryptococcus neoformans ATCC 90113 by CLSI method. It counts as functional, organism-based.
The test system of data set [6] is Leishmania donovani. The data set can be described thus: Antileishmanial activity against promastigote of Leishmania donovani after 72 hrs by alamar blue assay. It counts as functional, organism-based. The note with it: for IC50: read-out: IC50.
In data set [7] the test system is Staphylococcus aureus. Briefly: Antibacterial activity against Staphylococcus aureus ATCC 29213 by CLSI method. In kind it is functional, organism-based.
The subject of data set [8] is Vero. Briefly: Cytotoxicity against african green monkey Vero cells up to 4.6 ug/ml after 48 hrs by neutral red assay. It counts as cell-based. The conditions noted are these: chlorocebus sabaeus.
Data set [9] has as its system Staphylococcus aureus. The data set can be described thus: Antibacterial activity against methicillin-resistant Staphylococcus aureus ATCC 33591 by CLSI method. The note with it: for IC50: read-out: IC50. In kind it is functional, organism-based.
[10] abbreviates: Staphylococcus aureus, ATCC 33591.

In brackets after ≈: the same amount, converted by molar mass. Activity calls are given as the source filed them.

With `O=[N+]([O-])c1ccc(C(c2c[nH]c3ccccc23)c2c[nH]c3ccccc23)o1`, the result in data set [1] and in data set [2] was inactive. Besides, the IC90 in data set [3] (Leishmania donovani, 72 h) was 41.8 µM; in data set [6] (Leishmania donovani, 72 h) it was 12.2 µM. The IC50 in data set [3] (Leishmania donovani, 72 h) turned out to be 31.5 µM; in data set [4] (Mycobacterium intracellulare, ATCC 23068, read-out: IC50), 52.9 µM; in [5], 29.6 µM; in data set [6] (Leishmania donovani, 72 h), 6.61 µM; in data set [7], 12 µM; in data set [9] (setting [10]) it was 8.54 µM. Moreover, the MBC result in data set [4] and in data set [9] was “inactive” each time. Further, the MIC entry in data set [4] and in data set [5] was “inactive” throughout. In addition, the MFC result in data set [5] was “inactive”. Further, the MBC in [7] turned out to be 28 µM (≈ 10 µg/mL). The MIC in data set [7] worked out at 28 µM (≈ 10 µg/mL); in data set [9] (setting [10]), 14 µM (≈ 5 µg/mL). In addition, the Activity result in [8] is given as “Non-toxic”.

With `Oc1ccccc1C(c1c[nH]c2ccccc12)c1c[nH]c2ccccc12`, the result in [1] and in [2] was inactive. The IC90 entry in [3] was “inactive”. For the same compound, the IC50 in data set [3] (Leishmania donovani, 72 h) was 95.9 µM; in data set [4], “Not Active”; in [5], 14.6 µM; in data set [6] (Leishmania donovani, 72 h), 41.1 µM; in data set [7], 17.2 µM; in data set [9] (setting [10]) it was 36.2 µM. In addition, the MBC entry in [4], in data set [7] and in [9] was “inactive” in each case. The MIC result in data set [4] and in data set [9] was “inactive” in each case. Also, the MFC result in data set [5] is “inactive”. Further, the MIC in data set [5] and in [7] was 59.2 µM (≈ 20 µg/mL) throughout. The compound further returned a 90% effect concentration (IC90) in [6] (Leishmania donovani, 72 h) of 75.7 µM. In data set [8], the Activity entry is “Non-toxic”.

Consider `c1csc(C(c2c[nH]c3ccccc23)c2c[nH]c3ccccc23)c1`, for which the outcome in [1] and in data set [2] was inactive. The compound further showed an IC90 in data set [3] (Leishmania donovani, 72 h) of 101 µM. Further, the IC50 in [3] (Leishmania donovani, 72 h) is 70.2 µM; in [4], “Not Active”; in [5], 18.9 µM; in [6] (Leishmania donovani, 72 h), 100 µM; in data set [7], 9.15 µM; in data set [9] (setting [10]), 13.5 µM. Moreover, the MBC result in data set [4], in data set [7] and in [9] was “inactive” in each case. The MIC entry in data set [4] and in data set [9] was “inactive” each time. In [5], this compound had an MFC of 30.5 µM (≈ 10 µg/mL). Further, the figures for the minimum inhibitory concentration (MIC) in data set [5] and in data set [7] were 30.5 µM (≈ 10 µg/mL) and 15.2 µM (≈ 4.99 µg/mL), respectively. For the same compound, in data set [6], the IC90 result was “inactive”. Also, the Activity entry in data set [8] is recorded as “Non-toxic”.

On to `Fc1cc(F)cc(C(c2c[nH]c3ccccc23)c2c[nH]c3ccccc23)c1`, for which the result in data set [1] and in data set [2] was inactive. The IC90 in data set [3] (Leishmania donovani, 72 h) was found to be 95.6 µM; in [6] (Leishmania donovani, 72 h), 19.8 µM. For the same compound, the IC50 in data set [3] (Leishmania donovani, 72 h) is 67.4 µM; in data set [4] it was “Not Active”; in [5], 2.32 µM; in [6] (Leishmania donovani, 72 h), 8.35 µM; in [7] it was 2.32 µM; in [9] (setting [10]) it was 2.93 µM. Moreover, the MBC entry in [4], in [7] and in data set [9] was “inactive” each time. In data set [4], the MIC entry is “inactive”. This compound had an MFC in data set [5] of 3.49 µM (≈ 1.25 µg/mL). Besides, the MIC in [5] was 3.49 µM (≈ 1.25 µg/mL); in data set [7] it was 3.49 µM (≈ 1.25 µg/mL); in data set [9] (setting [10]), 6.98 µM (≈ 2.5 µg/mL). For the same compound, the Activity result in data set [8] was “Non-toxic”.

On to `Fc1ccc(C(c2c[nH]c3ccc(I)cc23)c2c[nH]c3ccc(I)cc23)cc1Br`, for which the result in [1] was inactive. The result in data set [2] was inactive. Moreover, in data set [3] (Leishmania donovani, 72 h), the 90% effect level (IC90) was put at 31.4 µM and the IC50 was 18.2 µM. In data set [5], this compound returned an IC50 of 16.8 µM, an MFC of 29.9 µM (≈ 20 µg/mL) and an MIC of 29.9 µM (≈ 20 µg/mL). In data set [6] (Leishmania donovani, 72 h), the IC90 was found to be 18.2 µM and the IC50 was found to be 9.84 µM. Also, in [8], the Activity result is listed as “Non-toxic”.

As usually defined, the IC90 is the concentration needed for an effect of 90%. By IC50 is commonly meant the midpoint of a concentration-inhibition curve. What is called MBC is the smallest concentration meeting the test's criterion for killing. As a reminder, the MIC is the least concentration at which growth counts as inhibited. Broadly, the MFC is the lowest tested concentration that kills the fungus rather than only halting it.

For the origin of these results see ChEMBL document CHEMBL2375321, “Discovery of 3,3'-diindolylmethanes as potent antileishmanial agents” (Eur J Med Chem, 2013).
